Laboratory results reported in PubChem BioAssay (NCI).
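Method: 48-hour compound exposure of cells in 96-well plates, five concentrations, linear interpolation of endpoints. GI50 = concentration required for 50% inhibition of growth. Definition used: TGI = concentration required for complete inhibition of growth.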

Legend:
Assay in all cases: NCI tumour cell line growth inhibition, 48 h
HS 578T breast = test system: HS 578T breast
MDA-N = test system: MDA-N
T-47D breast = test system: T-47D breast
HOP-18 NSCLC = test system: HOP-18 NSCLC
LXFL 529 NSCLC = test system: LXFL 529 NSCLC
RXF-631 renal = test system: RXF-631 renal
P388 leukemia = test system: P388 leukemia
P388/ADR leukemia = test system: P388/ADR leukemia
SN12K1 renal = test system: SN12K1 renal

| Structure (SMILES) | TGI (HS 578T breast) | TGI (T-47D breast) | TGI (HOP-18 NSCLC) | TGI (LXFL 529 NSCLC) | other results |
| --- | --- | --- | --- | --- | --- |
| CCOC(=O)Cn1c(=O)c(C)cn(COCCO)c1=O | > 100 µM | > 100 µM |  |  | TGI (MDA-N): > 100 µM |
| COC(=O)C1c2cc3c(c(O)c2C(O)CC1(C)O)C(=O)c1c(O)cc2c(c1C3=O)OC1OC2(C)C(O)C(N(C)C)C1O (configuration not stated) | 7.21 µM | 4.6 µM | > 100 µM | > 100 µM | TGI (MDA-N): 2.91 µM |
| CCOC(C)OC1CC(n2cc(C)c(=O)[nH]c2=O)OC1CO (configuration not stated) |  |  | > 100 µM | > 100 µM |  |
| CN/N=C(\C(=O)Nc1ccc(C)c(C)c1)C(C(=O)OC)c1nc2ccc([N+](=O)[O-])cc2[nH]c1=O (configuration not stated) |  |  |  | > 100 µM |  |
| COc1ccc(C2=NC(c3ccc(Cl)cc3)C(c3ccc(Cl)cc3)N2C(=O)N2CCNC(=O)C2)c(OC(C)C)c1 (configuration not stated) | 6.45 µM | > 10 µM |  |  | GI50 (HS 578T breast): 2.65 µM; GI50 (T-47D breast): 3.67 µM |
| CCN(CC)CCO[Si](OCCN(CC)CC)(OCCN(CC)CC)OCCN(CC)CC |  |  |  |  | TGI (RXF-631 renal): > 100 µM |
| O=C(CCC1CCCCN1)Nc1ccc2c(c1)C(=O)c1ccc(NC(=O)CCN3CCCCC3)cc1C2=O (configuration not stated) |  |  | 9.77 µM | 2.7 µM |  |
| C(=C/c1nc2ccccc2o1)/c1ccc2c(c1)OCO2 |  |  | 60.8 µM |  | TGI (P388 leukemia): > 35.8 µM; TGI (P388/ADR leukemia): > 43.7 µM; TGI (SN12K1 renal): 42 µM |
| CC1OC(=O)C(C(C)C)NC(=O)C(C(C)C)OC(=O)C(C(C)C)NC(=O)C(C)OC(=O)C(C(C)C)NC(=O)C(C(C)C)OC(=O)C(C(C)C)NC(=O)C(C)OC(=O)C(C(C)C)NC(=O)C(C(C)C)OC(=O)C(C(C)C)NC1=O (configuration not stated) |  | 0.0138 µM | 0.0539 µM |  | TGI (P388 leukemia): 0.25 µM; TGI (P388/ADR leukemia): 0.0325 µM; TGI (SN12K1 renal): 0.816 µM |
